From ChEMBL document CHEMBL3886996, “6-alkynyl-pyridine derivatives” (2016)

Molecular target: Baculoviral IAP repeat-containing protein 2 (Homo sapiens, UniProt Q13490)
Test: Binding Assays (DELFIA): BIR3 domains (10 nM) were incubated with SMAC peptide (10 nM) in assay buffer (50 mM Tris, 120 mM NaCl, 0.1% BSA, 1 mM DTT, 0.05% Triton X100) for one hour at room temperature in the presence of inhibitory compounds. The assay mixture was transferred to a streptavidin coated plate and incubated for one hour at room temperature to allow binding of the biotinylated peptide and associated BIR3 domains to the plate. After several washing steps Eu labeled anti-GST antibody (e.g. Perkin Elmer DELFIA Eu-N1-antiGST AD0250) was added to detect BIR3 domain-SMAC peptide interactions according to Perkin Elmer's instructions. Briefly, the antibody was added (dilution 1:5000 in Perkin Elmer DELFIA Assay Buffer 2013-01) and incubated for one hour. After 3 washing steps using Delfia Washing Buffer (Perkin Elmer DELFIA Wash 2013-05), Enhancement Solution (Perkin Elmer Enhancement Asolution 2013-02) was added and incubation continued for 10 minutes.

- IC50: in the range around 2 nM
Structure (SMILES): CN[C@@H](C)C(=O)Nc1ccc(-c2c(-c3cccnc3OC)nc3ccccn23)c(C#Cc2ccc3c(C)nccc3c2)n1
